Laboratory results taken from a melting point compilation (Tetko et al.; mined from patent text by program, amines drawn as free bases though some values may be those of a salt).

Row | melting point | Compound
1 | 267 to 270 °C | COc1ccc(C2(c3ccc(OC)cc3)Nc3ccc(-c4ccc5[nH]cnc5c4)cc3N2)cc1
2 | 78 to 81 °C | CC1(C)C2CC[C@]1(C)C(=O)C(C(=O)Nc1ccc(C(F)(F)F)cc1)C2=O (stereo partly drawn)
3 | 179 to 190 °C | COc1cc(C(O)c2c(O)c(=O)ccn2CCO)ccc1O (stereo not drawn)
4 | 280 to 282 °C | O=C(Nc1cccc(-c2ccnc3c(C(=O)c4cccs4)cnn23)c1)c1cnc[nH]1
5 | 150 °C | CC(=O)N1CCc2nc3cccc(N)c3c(C)c2CC1
6 | 151 to 152 °C | CCC(OC)C(=O)Nc1ccc(C2=NNC(=O)CC2C)cc1 (stereo not drawn)
7 | 295 to 297 °C | O=C(Nc1nc2ccccc2s1)c1cn(-c2ccccc2)c2ccccc2c1=O
8 | 131 to 132 °C | CCOC(=O)Nc1cccc(OC)c1[N+](=O)[O-]
9 | 128 to 131 °C | C=CCc1c(Cl)cc2c(c1O)OC(COS(=O)(=O)c1ccc(C)cc1)C2 (stereo not drawn)
10 | 92 to 94 °C | COC(=O)C(=O)c1ccc(OCCOc2ccc3cccnc3c2)cc1
11 | 86 to 88 °C | CC(C)(C)COc1ccc([N+](=O)[O-])cc1Br
12 | 125 to 127 °C | Cc1ncc(CSC(=O)c2cccc(C(=O)SCc3cnc(C)c4c3COC(C)(C)O4)c2)c2c1OC(C)(C)OC2
13 | 184 to 186 °C | CCOC(=O)c1cnc2c3cc(OC)ccc3ccn2c1=O
14 | 70 to 71 °C | CC(CN(C(C)C)C(C)C)N1C(=O)C(=O)c2ccccc21 (stereo not drawn)
15 | 107 to 108 °C | COc1c(OCC(F)(F)F)ccnc1CO
16 | 91 to 94 °C | O=[N+]([O-])c1cc(OCC2=CCCSC2)c(Cl)cc1F
17 | 203 to 205 °C | O=Cc1ccc(-c2cc(O)ccc2O)cc1
18 | 123 to 126 °C | COc1cc(OC)nc(C2(C#N)OC(=O)c3c(Cl)ccc(Cl)c32)n1 (stereo not drawn)
19 | 246 to 248 °C | Cc1cc(-c2c(F)cc3c(=O)c(C(=O)O)cn(C4CC4)c3c2F)cc(C)n1
20 | 139 to 140 °C | CCOC(=O)COc1cc(C(F)(F)F)c2c(=O)c(-c3ccccc3)coc2c1
21 | 300 to 315 °C | C[C@@H](NC(=O)c1c[nH]c2ncc(-c3nn(C)c4cc(F)ccc34)nc12)C1(C#N)CCCC1
22 | 182 to 183 °C | O=C(O)Cc1ccc(CCNC(=O)c2ccc(Cl)cc2)cc1
23 | 140 to 141 °C | CCOC(=O)c1c(CCl)nc2ccc(Cl)cc2c1-c1ccc(Cl)cc1
24 | 120 to 123 °C | CSC(=NC#N)NCCSCc1cccnc1Nc1ccccc1
25 | 191 to 193 °C | COc1ccc2nc(-c3ccc(N)cc3)sc2c1

Row | melting point | Compound
26 | 246 to 248 °C | CC(=NNc1ccc(C2=NNC(=O)CC2C)cc1)c1ccncc1 (stereo not drawn)
27 | 228 to 229 °C | O=c1cnc2cc(Cl)cc(Cl)c2[nH]1
28 | 158 to 160 °C | O=C(Nc1ccc(-n2nc(C(F)(F)F)cc2C(F)(F)F)cc1)c1cccc(Br)c1
29 | 261 to 262 °C | CC1(C)OC(=S)Nc2ccc(-c3ccc(C#N)[nH]3)cc21
30 | 190 to 205 °C | CCCNCc1ccc(-c2cc3ncnc(Nc4ccc5[nH]ccc5c4)c3s2)cc1
31 | 191 to 192 °C | COc1cc(NC(=N)Nc2ccc3c4c(cccc24)CC3)cc2ccccc12
32 | 118 °C | Cc1ccsc1C(=O)C(=CN(C)C)c1ccc(C(F)(F)F)cc1[N+](=O)[O-]
33 | 194 to 195 °C | CCOc1cc(O)nc(N(C)C)n1
34 | 98 to 101 °C | C#CCN(C(C)=O)c1cccc(C(=O)C=CN(C)C)c1
35 | 140 to 142 °C | COc1ccc(-n2nc(Sc3cc(C)ccc3C)c(C)c(C#N)c2=O)cc1
36 | 179 to 180 °C | COc1cccc(C(=C/C=C/C(=O)O)c2cccc(OC)c2)c1
37 | 95 to 96 °C | CC(C)CN1C(=O)c2cnc(-c3ccccc3)nc2N(C(=O)CCl)c2ccccc21
38 | 242 to 245 °C | CC(=O)N(c1nc2cc3nc(N(C(C)=O)N4CCCCC4C)sc3cc2s1)N1CCCCC1C (stereo not drawn)
39 | 160 to 161 °C | Cc1ccccc1NC(=N)NC12CC3CC(CC(C3)C1)C2
40 | 72.5 to 73.5 °C | COC(=O)[C@@H]1c2ccccc2C[C@@H]1O
41 | 186 to 188 °C | COc1ccc(-c2ccc(C(C)=NOCCOc3ccc(CC4SC(=O)NC4=O)cc3)cc2)c(OC)c1 (stereo not drawn)
42 | 158 °C | CCOC(=O)C(=O)Nc1cc(OC)ccc1[N+](=O)[O-]
43 | 120 °C | CC1(C)C(C(=O)O)C1(C)C
44 | > 305 °C | N#Cc1cnc2c(sc3ccc([N+](=O)[O-])cc32)c1O
45 | 256 °C | CN1CCN(C(=O)C(=O)Nc2cc(C#N)ccc2O)CC1
46 | 134 to 136 °C | CCOC(=O)C1(C)OC2(O)C3CCCN3C(=O)C(Cc3ccccc3)N2C1=O (stereo not drawn)
47 | 115 °C | CCOC(=O)C1=C(COCC(C)N=[N+]=[N-])NC(C)=C(C(=O)OC)C1 (stereo not drawn)
48 | 187 to 188 °C | CC(=O)NC[C@H]1CN(c2cc(F)c(N3CCSCC3)c(F)c2)C(=O)O1
49 | 169 to 170 °C | Nc1ncnc2c1c(I)cn2COCCO
50 | 116 °C | CCCCCCCCCCCCN(c1ccccc1)c1cccc2ccccc12

Row | melting point | Compound
51 | 140 to 142 °C | COC(=O)N[C@H]1Cc2ccc(N)cc2C1
52 | 232 to 234 °C | CCCn1c(=O)c2nc(C(=O)O)cn2c2ccccc21
53 | 77.5 to 79 °C | Fc1ccc2c(c1)Oc1ccccc1S2
54 | 100 to 102 °C | O=C(c1ccccc1)c1cc(CN2CCN(c3ccccc3)CC2)on1
55 | 136 to 138 °C | Clc1nc(-c2ccccc2)nc(-c2ccccc2)n1
56 | 188 to 189 °C | O=C(c1ccccc1)N1C=CC(c2c(-c3ccc(F)cc3)nc3n2CCS3)C=C1
57 | 229 to 231 °C | O=[N+]([O-])c1ccc(NC=C(S(=O)(=O)c2ccccc2)S(=O)(=O)c2ccccc2)nc1
58 | 112 to 113 °C | Cc1ccc2cccc(OCC(=O)c3ccc(Cl)cc3)c2n1
59 | 123 to 125 °C | CNC(=O)NC(=O)N(C)c1ccccc1
60 | 293 to 298 °C | CCCNC1=NS(=O)(=O)c2c(sc(C)c2C#N)N1
61 | 203 to 205 °C | C1=CC2(c3ccccc3CP(Cc3ccccc3)Cc3ccccc3)OC2(CP(Cc2ccccc2)Cc2ccccc2)C2OC12 (stereo not drawn)
62 | 98 to 100 °C | CCCCCc1ccc(C(=O)CCC(=O)O)cc1
63 | 191 to 192 °C | NC(=O)c1[nH]nnc1O
64 | 190 °C | CCOC(=O)c1c(C)nn(C)c1CS(=O)(=O)NC(=O)Nc1nc(OC)cc(OC)n1
65 | 127 °C | CC(C#N)N1CCC(C(=O)c2ccc(F)cc2)CC1 (stereo not drawn)
66 | 140 to 142 °C | CCSC1(SC)CCC2C3CCC4=CC(=O)C=CC4(C)C3(F)C(OC(C)=O)CC21C (stereo not drawn)
67 | 87.5 to 90.5 °C | CC(C)(C)SC1N(C(C(=O)OCc2ccc([N+](=O)[O-])cc2)C(=O)C(C)(C)C)C(=O)C1(C)C (stereo not drawn)
68 | 88.5 to 90 °C | N#Cc1ccccc1OCCCN1CCC(C(c2ccc(F)cc2)c2ccc(F)cc2)CC1
69 | 100 °C | O=S(=O)(CCl)c1ncc(Cl)cn1
70 | > 300 °C | c1ccc2c(=Nc3ccncc3)cc3oc4cc(N5CCOCC5)ccc4nc-3c2c1
71 | 145 to 146 °C | OCc1ccc(OCc2csc(-c3ccccc3)n2)cc1
72 | 93 to 94 °C | Cn1cc(-c2nsc(Cl)n2)c2ccccc21
73 | 168 to 169 °C | CC(=O)N1CCNC1=Nc1ccc(Cl)cc1Cl
74 | 305 to 308 °C | Clc1ccc(-c2nc3cccnc3[nH]2)cc1
75 | 177 to 178 °C | Cc1noc(C)c1C(=O)Nc1ccc(-n2ccc(C(F)(F)F)n2)cc1

Row | melting point | Compound
76 | 144 °C | OCC1OC(n2cnc3c(NCc4ccc5ccc6cccc7ccc4c5c67)ncnc32)C(O)C1O (stereo not drawn)
77 | 211 to 213 °C | Cc1cc(C)cc(N2CCN(C(=O)Nc3cc(-c4cccnc4)nc4ccccc34)CC2)c1
78 | 225 to 226 °C | CCOC(=O)c1c2n(c3ccc(F)cc3c1=O)CCS2
79 | 136 to 138 °C | CNC(=O)N1N=C(c2ccc(N)cc2)c2cc3c(cc2CC1CO)OCO3 (stereo not drawn)
80 | 195 to 197 °C | Cn1cc(C2=C(c3cn(CCCN)c4ccccc34)C(=O)NC2=O)c2ccccc21
81 | 178 to 181 °C | Cc1nc(N2CCN(CCCC(F)(F)F)C2=O)sc1C(=O)NCc1ccncc1
82 | > 260 °C | CCOC(=O)c1cnc(O)nc1-c1ccccc1
83 | 155 to 156 °C | O=C1c2ccccc2C(=O)N1CCc1cc(-c2ccc(F)cc2)no1
84 | 218 to 220 °C | COc1ccc(Nc2nc(NC3CCCCCC3)nc(Oc3ccc(C=O)cc3)n2)cc1Cl
85 | 122 to 124 °C | CCOC(=O)C1=C(C)NC(C(OC)OC)=C(C(=O)OC)C1c1ccccc1[N+](=O)[O-] (stereo not drawn)
86 | 82 °C | C=CCCc1ccc(C=NN=Cc2ccc(C)cc2)cc1
87 | 215 to 217 °C | CCCCC1=NSc2ccccc2N1Cc1ccc(-c2ccccc2C(=O)O)cc1
88 | 224 to 227 °C | COc1ccc(C(=O)Nc2ccccc2)cc1NS(=O)(=O)c1ccc([N+](=O)[O-])cc1
89 | 99 to 110 °C | COC(=O)c1cccn2c(I)cnc12
90 | 110 to 111 °C | CSc1cc(=O)c2cc(OC(=O)OC(C)(C)C)c(OC(=O)OC(C)(C)C)cc2s1
91 | 99.5 °C | CNC(=S)NCCSCc1ncccc1N
92 | 200 °C | C=CC(=O)Nc1ccc2ccc(Cl)nc2n1
93 | 73 to 74 °C | Cc1ccc(S(=O)(=O)OCCc2c(F)ccc(F)c2F)cc1
94 | 63 to 64 °C | CCOC(=O)CCC=Cc1ccc2ccccc2c1O
95 | 189 to 192 °C | CCCN(CCC)CCc1cccc2[nH]c(=O)[nH]c12
96 | 228 to 230 °C | O=C1NCCn2c1cc1ccccc12
97 | 209 to 210 °C | CCOc1nc2c(C(=O)OC)sc(C)c2[nH]1
98 | 152 to 154 °C | COc1cc(CC(=O)Nc2ccc(C(C)CC(=O)O)cc2)ccc1NC(=O)N1CCc2ccccc21 (stereo not drawn)

Row | Compound | melting point
99 | CC(C)C1=NCCSC1=NOC(=O)N(C)SN1CCOCC1 | 127 to 128 °C
100 | Oc1ccccc1[C@@H]1C[C@H]2C=C(c3c[nH]c(-c4ccc(F)cc4)c3-c3ccncc3)CCN2C1 | 195 to 196 °C
101 | CNC(=O)Oc1ccc(N=Cc2ccccc2O)c2c1OC(C)(C)C2 | 201 to 203 °C
102 | CNC(=O)N1N=C(c2ccc(N)c(C)c2)c2cc(Cl)ccc2C=C1C | 210 to 212 °C
103 | CCc1cc2c(s1)-n1c(C)nnc1C(CC(=O)O)N=C2c1ccc(Cl)cc1 (stereo not drawn) | 198 to 202 °C
